Test system: bESC lines Alp 0501 and Alp 0505
Test: bESC differentiation to mesoderm, qPCR of Oct4 and Brachyury
Assay type: cell-based, bovine
Details: 8 μM CHIR 99021 added to Essential 6 medium, aggregates expanded three days, FIG. 5
Protocol: Quantitative PCR (qPCR) analysis was performed as follows: • 1. Total RNA was extracted from the cells using GeneJET RNA purification kit (Thermo Fisher Scientific). • 2. Reverse transcription was carried out with RevertAid First Strand cDNA Synthesis Kit (Thermo Fisher Scientific). 3. Quantitative PCR (qPCR) was performed to analyze expression of specific genes using specific primers designed for use in probe-based detection method. • 4. All expression data were normalized to beta-actin. Relative quantification of fold change was calculated using the comparative Ct (ΔΔCt) method. Initial differentiation of bESC to mesoderm: • 1. Cells were harvested and seeded for aggregates formation in 6-well plates as detailed in example 4 below. • 2. The initial conditions were: • a. bESC in the growth medium mTeSR1 (StemCell technologies) • b. bESC in the growth medium Essential 8 (Thermo Fisher Scientific) • 3. Four days after seeding, the medium was replaced to form the following conditions: • a. Medium of bESC aggregates formed in mTeSR1 remained. • b. Medium of bESC aggregates formed in Essential 8 medium was replaced to Essential 6 medium (Thermo Fisher Scientific) • Or— • c. Medium of bESC aggregates formed in Essential 8 medium was replaced to Essential 6 supplemented with 8 μM CHIR 99021. • 4. […]

With `Cc1cnc(-c2cnc(NCCNc3ccc(C#N)cn3)nc2-c2ccc(Cl)cc2Cl)[nH]1` [CHIR 99021, 6-[[2-[[4-(2,4-Dichlorophenyl)-5-(5-methyl-1H-imidazol-2-yl)-2-pyrimidinyl]amino]ethyl]amino]-3-pyridinecarbonitrile] the “Brachyury expression (initial mesoderm marker)” value was “increase” and the “Oct4 expression (pluripotency marker)” value was “additional decrease”.

— patent US12247216B2, “Pluripotent cell aggregates and use thereof” (ALEPH FARMS LTD., priority 2019, dated 2025)
